Laboratory results: ChEMBL document CHEMBL1157332, “Neuroprotective bibenzyl glycosides of Stemona tuberosa roots” (2006)

What was measured:
SH-SY5Y [1] = experiment: Neuroprotective effect against 6-OHDA-induced neurotoxicity in human SH-SY5Y cells at 1 uM treated 1 hr before 6-OHDA injury after 24 hrs by MTT assay relative to control; format: functional
SH-SY5Y [2] = experiment: Neuroprotective effect against 6-OHDA-induced neurotoxicity in human SH-SY5Y cells at 0.1 uM treated 1 hr before 6-OHDA injury after 24 hrs by MTT assay relative to control; format: functional

SMILES	Activity (SH-SY5Y [1])	Activity (SH-SY5Y [2])
Cc1c(O)cc(CCc2ccccc2)cc1O[C@@H]1O[C@H](CO)[C@@H](O)[C@H](O)[C@H]1O	72.4%	50.9%
COc1cc(OC)cc(C(O[C@@H]2O[C@H](CO)[C@@H](O)[C@H](O)[C@H]2O)C(O)c2ccccc2)c1 (stereo partly drawn)	97.3%	29.5%
COc1ccc(CCc2cc(O)c(C)c(O[C@@H]3O[C@H](CO)[C@@H](O)[C@H](O)[C@H]3O)c2)cc1	65.6%	31%
O=C(O[C@@H]1Cc2c(O)cc(O)cc2O[C@@H]1c1cc(O)c(O)c(O)c1)c1cc(O)c(O)c(O)c1 [EPIGALOCATECHIN GALLATE]	42.2%	20.1%
